Key:
Type in all cases: cell-based
[1] = test system: Escherichia coli (E. coli—ATCC #10536); experiment: Automated assessment of efficacy in model surfactant medium (2.85% sodium cocoyl glycinate and 1.85% sodium lauroamphoacetate), 15 seconds exposure, delta OD450/OD590; settings: for MBC: Escherichia coli, ATCC10536, 15 s, in 2.85% sodium cocoyl glycinate + 1.85% sodium lauroamphoacetate solution at pH 10, E. coli, read-out: MBC (minimum biocidal concentration); for No. of replicates showing growth (out of 4) / Δ OD 450 nm = OD450 (time = 16 hours) − OD450 (time zero), Mean / Δ OD 590 nm OD590 (time = 16 hours) − OD590 (time zero), Mean / MBC of phenol: model surfactant solution; for No. of replicates showing growth (out of 4) / Δ OD 450 nm = OD450 (time = 16 hours) − OD450 (time zero), Mean / Δ OD 590 nm OD590 (time = 16 hours) − OD590 (time zero), Mean: 15 s exposure; for MBC of phenol: phenol alone, complete bacterial kill against E. coli
Procedure: Micobiocidal Activity of Actives as Per the Invention in a Model Surfactant Medium Test Methodology for Automated Assessment of Efficacy in Surfactant Base
Solutions were prepared such that the concentrations of the surfactant components and test actives were 1.1×the final desired concentration in order to allow for dilution with the bacterial inoculum in the test. The solutions were manually adjusted to […] by dropwise addition of sodium hydroxide solution, as measured with a pH meter at ambient temperature.
Tests were conducted using standard microtiter plate assays using an automated liquid handling system, 270 μl of the surfactant test solution was pipetted into each well of the microtitre plate and 30 μl of the bacterial suspension was then added. After exactly 15 seconds of bacterial exposure, a 30 μl volume of bacterial cells was withdrawn and transferred to 270 μl of D/E quench solution. After 5 minutes in the D/E quench, the optical density (OD) was measured for each plate in turn at two specific wavelengths (450 nm and 590 nm). These provide a dual check of antimicrobial activity, as the OD450 reading is specific for the yellow colour of D/E quench when bacterial growth is observed, whereas OD590 is specific for the initial purple colour of the D/E quench which is retained if no bacterial growth is observed. After the time zero OD measurements, plates were then incubated at 37° C. overnight (16 hours) before repeating the OD measurements. Delta OD values were calculated by subtracting […]. Bacterial growth is observed as art increase in OD450 and a decrease in ΔOD590. To identify antibacterially efficacious systems (those preventing appreciable bacterial growth after incubation), the following threshold changes in OD readings have been adopted: if (1). OD450 increases by less than 0.2 absorbance unit on incubation and (2). OD590 decreases by less than 0.35 unit on incubation. Conversely, where OD450 increases by more than 0.2 AU and OD590 decreases by more than 0.35 unit after incubation, corresponding to a colour shift from purple to yellow, the test system allows bacterial growth and is not deemed efficacious, four replicate measurements in the same plate have been made for each test system. The number of replicate wells showing either bacterial growth or no growth is also readily assessed by eye by following the colour change.
Dose responses for individual components and binary mixtures of actives at a fixed concentration ratio were generated by sequential dilution of liquors with further surfactant solution to obtain a series of endpoints.
In some selected cases, the combinations were also tested at the weight ratio 1:1.

[2] = test system: Escherichia coli (10536 strain); experiment: 15 seconds contact kill assay of actives in water, mean bacterial survival NMBS; settings: for NMBS: alone, 15 seconds contact
[3] = test system: Escherichia coli (E. coli—ATCC #10536); experiment: Synergy tests: high resolution MBC microtiter plate assay, 15 seconds contact, phosphate buffer containing […] dipropylene glycol; settings: E. coli 10536; for SI (Synergy Index = Qa/QA + Qb/QB): at Qa and Qb, <1 synergy, 1 additivity, >1 antagonism
Source text: The concentrations and ratios may also vary under different test conditions or with different test methods.
One measure of synergy is the industrially accepted method described by Kull, F. C.; Eisman, P. C.; Sylwestrowicz, H. D. and Mayer, R. L., in Applied Microbiology 9:538-541 (1961), using the ratio determined by the formula: Qa/QA+Qb/QB=Synergy Index (“SI”) wherein: • QA=concentration of compound A (first component) in percent, acting alone, which produced an end point (MBC of Compound A). • Qa=concentration of compound A in percent, in the mixture, which produced an end point. • QB=concentration of compound B (second component) in percent, acting alone, which produced an end point (MBC of Compound B). • Qb=concentration of compound B in percent, in the mixture, which produced an end point.
When the sum of Qa/QA and Qb/QB is greater than one, antagonism is indicated. […] The lower the SI, the greater is the synergy shown by that particular mixture. The minimum biocidal concentration (MBC) of a microbicide is the lowest concentration tested under a specific set of conditions that provides complete kill of the tested microorganisms.
Synergy tests were conducted using standard microtiter plate assays with phosphate buffer containing 3.5% dipropylene glycol (DPG). In this method, a wide range of combinations of chemicals was tested by conducting high resolution MBC assays of Component (A) in the presence of various concentrations of Component (B). High resolution MBCs were determined by adding varying amounts of microbicide to one column of a microtiter plate and doing subsequent […] dilutions using an automated liquid handling system to obtain a series of closely spaced endpoints. The MBC plate was inoculated one column at a time with the test microorganism. An aliquot of the inoculated well was transferred at 15 seconds to a plate containing a neutralizing agent (D/E Neutralizing Broth), mixed and held for 5 minutes before being transferred to a growth plate containing trypticase soy broth (TSB). The TSB plate was incubated at 37° C. and read for the presence/absence of growth at 24 hours. The lowest level tested that provided complete kill (as evidenced by no growth in the microtitre plate) of the test organisms in 15 seconds is the minimum biocidal concentration (MBC).
The synergy of the combinations of the present invention was determined against a bacterium, Escherichia coli (E. coli—ATCC #10536), at a concentration of approximately 1×10^8 bacteria, per mL. This microorganism is representative of natural contaminants in many consumer and industrial applications.

[4] = single active alone at 0.2% w/v
[5] = single active alone at 0.3% w/v
[6] = single active alone at 0.1% w/v
[7] = single active alone at 0.175% w/v

CC1=CC[C@@H](CO)[C@H](C)C1 (relative stereo) [Floralol, Trans-4,6-dimethyl-3-Cyclohexene-1-methanol]
MBC [1]: 4000 µg/mL | No. of replicates showing growth (out of 4) [1, 4]: 4 | Δ OD 450 nm = OD450 (time = 16 hours) − OD450 (time zero), Mean [1, 4]: −1.43 | Δ OD 590 nm OD590 (time = 16 hours) − OD590 (time zero), Mean [1, 4]: 0.35 | No. of replicates showing growth (out of 4) [1, 5]: 4 | Δ OD 450 nm = OD450 (time = 16 hours) − OD450 (time zero), Mean [1, 5]: −1.20 | Δ OD 590 nm OD590 (time = 16 hours) − OD590 (time zero), Mean [1, 5]: 0.55 | No. of replicates showing growth (out of 4) ([1]; single active alone at […] w/v): 1 | Δ OD 450 nm = OD450 (time = 16 hours) − OD450 (time zero), Mean ([1]; single active alone at […] w/v): −0.29 | Δ OD 590 nm OD590 (time = 16 hours) − OD590 (time zero), Mean ([1]; single active alone at […] w/v): 0.23 | NMBS ([2]; 0.3% w/v, E. coli): 0 log CFU/ml | NMBS ([2]; 0.4% w/v, E. coli): 0 log CFU/ml | MBC (minimum biocidal concentration) ([2]; E. coli, in water, component alone): 0.3 % w/v | NMBS ([2]; […] w/v, E. coli): 7.92 log CFU/ml | MBC of antimicrobial alcohol ([2]; antimicrobial alcohol alone, complete bacterial kill against E. coli): 0.3 % (w/v)

CC1=CC(C)C(CO)C(C)C1 (stereo not shown) [2,4,6-trimethyl-3-cyclohexene-1-methanol]
SI (Synergy Index = Qa/QA + Qb/QB) [3]: 1.00 | MBC [1]: 4000 µg/mL | No. of replicates showing growth (out of 4) [1, 4]: 4 | Δ OD 450 nm = OD450 (time = 16 hours) − OD450 (time zero), Mean [1, 4]: −1.50 | Δ OD 590 nm OD590 (time = 16 hours) − OD590 (time zero), Mean [1, 4]: 0.29 | No. of replicates showing growth (out of 4) ([1]; single active alone at […] w/v): 4

CC1=CCC(C(C)CO)CC1 (stereo not shown) [2-(4-methylcyclohex-3-enyl)propan-1-ol]
SI (Synergy Index = Qa/QA + Qb/QB) [3]: 1.00

CCCc1ccccc1O [2-propyl phenol]
MBC of phenolic compound ([2]; phenolic compound alone, complete bacterial kill against E. coli): 0.125 % (w/v)

CCC(C)c1ccccc1O (stereo not shown) [2-sec-butyl phenol]
MBC of phenol [1]: 0.175 % (w/v)

CCC(C)c1ccccc1O (stereo not shown) [2-sec-butylphenol]
No. of replicates showing growth (out of 4) [1, 6]: 4 | Δ OD 450 nm = OD450 (time = 16 hours) − OD450 (time zero), Mean [1, 6]: −1.44 | Δ OD 590 nm OD590 (time = 16 hours) − OD590 (time zero), Mean [1, 6]: 0.36

CC(C)(C)c1ccccc1O [2-ter-butylphenol]
No. of replicates showing growth (out of 4) [1, 7]: 4 | Δ OD 450 nm = OD450 (time = 16 hours) − OD450 (time zero), Mean [1, 7]: −1.08 | Δ OD 590 nm OD590 (time = 16 hours) − OD590 (time zero), Mean [1, 7]: 0.57

Cc1ccc(C(C)(C)C)c(O)c1 [2-tert-butyl-5-methylphenol]
MBC of phenol [1]: 0.2 % (w/v)

CC(C)(C)c1ccccc1O [2-tert-butylphenol]
SI (Synergy Index = Qa/QA + Qb/QB) [3]: 1.00

CC(C)(C)c1cccc(O)c1 [3-tert-butylphenol]
SI (Synergy Index = Qa/QA + Qb/QB) [3]: 1.00 | MBC of the component acting alone (QA or QB) ([3]; component alone, complete kill in 15 seconds): 0.3 weight %

— patent publication US9307761B2, “Microbial composition” (Rohm and Haas Company, priority 2011, dated 2016)
